We go through 8 compounds from patent publication US4444759A, “GnRH Antagonists II” (The Salk Institute for Biological Studies, priority 1982, dated 1984).

Square brackets hold non-standard residues; d marks the D form. Peptide text beside a SMILES is read from it. dPhe(4-NO2) = N[C@H](Cc1ccc([N+](=O)[O-])cc1)C(=O)O; dPhe(4-NH2) = Nc1ccc(C[C@@H](N)C(=O)O)cc1; dPhe(4-Br) = N[C@H](Cc1ccc(Br)cc1)C(=O)O; dPhe(4-Cl) = N[C@H](Cc1ccc(Cl)cc1)C(=O)O; dPhe(4-F) = N[C@H](Cc1ccc(F)cc1)C(=O)O; d2Nal = N[C@H](Cc1ccc2ccccc2c1)C(=O)O Where only a bound is given, the exact number is not on record here.

In the test the test system is LH released by 3 nanomolar GnRH in dissociated rat pituitary cells. It counts as cell-based. On the procedure:
The peptide is assayed in vitro and in vivo. The in vitro test is made using dissociated rat pituitary cells maintained in culture for 4 days prior to the assay. The levels of LH mediated in response to the application of peptides is assayed by specific radioimmunoassay for rat LH. Control dishes of cells only receive a measure which is 3 nanomolar in GnRH; experimental dishes receive a measure 3 nanomolar in GnRH plus a measure having either the present standard antagonist (for comparison purposes) i.e. [Ac-dehydro Pro^1, 4-F-D-Phe^2, D-Trp^3,6 ]-GnRH or the test peptide in concentrations ranging from 0.01 to 10 nanomolar. The amount of LH secreted in the samples treated only with GnRH is compared with that secreted by the samples treated with the peptide plus GnRH.
The ability of the test peptide to reduce the amount of LH released by 3 nanomolar GnRH is compared to that of the present standard peptide. The results are calculated using 3-5 doses of each of the peptides by the statistical program BIOPROG (provided by D. Rodbard NICHD) and are expressed as a potency relative to the present standard. The standard peptide usually blocks 50% of the LH released by GnRH at less than a ratio of 0.1 [antagonist]/1[GnRH].

Turning to `CCNC(=O)[C@@H]1CCCN1C(=O)[C@H](CCCNC(=N)N)NC(=O)[C@H](CC(C)C)NC(=O)[C@@H](CCCNC(=N)N)NC(=O)[C@H](Cc1ccc(O)cc1)NC(=O)[C@H](CO)NC(=O)[C@@H](Cc1c[nH]c2ccccc12)NC(=O)[C@@H](Cc1ccc([N+](=O)[O-])cc1)NC(=O)[C@@H](Cc1ccc2ccccc2c1)NC(C)=O` [Peptide 5] (Ac-[d2Nal][dPhe(4-NO2)][dW]SY[dR]LRP-NHEt), the “in vitro Potency relative to [Ac-dehydro Pro1, 4-F-D-Phe2, D-Trp3,6]-GnRH” value worked out at 0.20.

As to `CC(=O)N[C@H](Cc1ccc2ccccc2c1)C(=O)N[C@H](Cc1ccc(F)cc1)C(=O)N[C@H](Cc1c[nH]c2ccccc12)C(=O)N[C@@H](CO)C(=O)N[C@@H](Cc1ccc(O)cc1)C(=O)N[C@H](CCCNC(=N)N)C(=O)N[C@@H](CC(C)C)C(=O)N[C@@H](CCCNC(=N)N)C(=O)N1CCC[C@H]1C(=O)NCC(N)=O` [Peptide 1, [Ac-β-D-2NAL^1,4-F-D-Phe^2,D-Trp^3, D-Arg^6]-GnRH] (Ac-[d2Nal][dPhe(4-F)][dW]SY[dR]LRPG-NH2), the “in vitro Potency relative to [Ac-dehydro Pro1, 4-F-D-Phe2, D-Trp3,6]-GnRH” value was 0.44. `CCNC(=O)[C@@H]1CCCN1C(=O)[C@H](CCCNC(=N)N)NC(=O)[C@H](CC(C)C)NC(=O)[C@@H](CCCNC(=N)N)NC(=O)[C@H](Cc1ccc(O)cc1)NC(=O)[C@H](CO)NC(=O)[C@@H](Cc1c[nH]c2ccccc12)NC(=O)[C@@H](Cc1ccc(Br)cc1)NC(=O)[C@@H](Cc1ccc2ccccc2c1)NC(C)=O` [Peptide 6] (Ac-[d2Nal][dPhe(4-Br)][dW]SY[dR]LRP-NHEt): the “in vitro Potency relative to [Ac-dehydro Pro1, 4-F-D-Phe2, D-Trp3,6]-GnRH” value was determined as 0.46. On the same count and under the same terms, for `CCNC(=O)[C@@H]1CCCN1C(=O)[C@H](CCCNC(=N)N)NC(=O)[C@H](CC(C)C)NC(=O)[C@@H](CCCNC(=N)N)NC(=O)[C@H](Cc1ccc(O)cc1)NC(=O)[C@H](CO)NC(=O)[C@@H](Cc1c[nH]c2ccccc12)NC(=O)[C@@H](Cc1ccc(Cl)cc1)NC(=O)[C@@H](Cc1ccc2ccccc2c1)NC(C)=O` [Peptide 4] (Ac-[d2Nal][dPhe(4-Cl)][dW]SY[dR]LRP-NHEt) the value was 0.38. In the case of “[Ac-dehydro Pro^1, 4-F-D-Phe^2, D-Trp^3,6 ]-GnRH [standard peptide, reference compound]”, for the setting “3 nanomolar GnRH, usual value”, the “ratio [antagonist]/1[GnRH] that blocks 50% of the LH released by GnRH” value was < 0.1 [antagonist]/1[GnRH]. Regarding `CC(=O)N[C@H](Cc1ccc2ccccc2c1)C(=O)N[C@H](Cc1ccc(F)cc1)C(=O)N[C@H](Cc1c[nH]c2ccccc12)C(=O)N[C@@H](CO)C(=O)N[C@@H](Cc1ccc(O)cc1)C(=O)N[C@H](Cc1ccc(N)cc1)C(=O)N[C@@H](CC(C)C)C(=O)N[C@@H](CCCNC(=N)N)C(=O)N1CCC[C@H]1C(=O)NCC(N)=O` [Peptide 2] (Ac-[d2Nal][dPhe(4-F)][dW]SY[dPhe(4-NH2)]LRPG-NH2), the “in vitro Potency relative to [Ac-dehydro Pro1, 4-F-D-Phe2, D-Trp3,6]-GnRH” value turned out to be 1.4.

In the case of `CC(=O)N[C@H](Cc1ccc2ccccc2c1)C(=O)N[C@H](Cc1ccc(F)cc1)C(=O)N[C@H](Cc1c[nH]c2ccccc12)C(=O)N[C@@H](CO)C(=O)N[C@@H](Cc1ccc(O)cc1)C(=O)N[C@H](CCCNC(=N)N)C(=O)N[C@@H](CC(C)C)C(=O)N[C@@H](CCCNC(=N)N)C(=O)N1CCC[C@H]1C(=O)N[C@H](C)C(N)=O` [Peptide 7] (Ac-[d2Nal][dPhe(4-F)][dW]SY[dR]LRP[dA]-NH2), the “in vitro Potency relative to [Ac-dehydro Pro1, 4-F-D-Phe2, D-Trp3,6]-GnRH” value was found to be 0.63.

As to `CC(=O)N[C@H](Cc1ccc2ccccc2c1)C(=O)N[C@H](Cc1ccc(Cl)cc1)C(=O)N[C@H](Cc1c[nH]c2ccccc12)C(=O)N[C@@H](CO)C(=O)N[C@@H](Cc1ccc(O)cc1)C(=O)N[C@H](CCCNC(=N)N)C(=O)N[C@@H](CC(C)C)C(=O)N[C@@H](CCCNC(=N)N)C(=O)N1CCC[C@H]1C(=O)NCC(N)=O` [Peptide 3] (Ac-[d2Nal][dPhe(4-Cl)][dW]SY[dR]LRPG-NH2), the “in vitro Potency relative to [Ac-dehydro Pro1, 4-F-D-Phe2, D-Trp3,6]-GnRH” value is on record as 0.56.
